According to patent US11999732B2, “P2X3 receptor antagonists” (RECORDATI INDUSTRIA CHIMICA E FARMACEUTICA SPA, priority 2018, dated 2024):
Read-outs that look alike come from different tables or passages of the source. Values belong to the molecule of their own block, whether it stands above or below them.

Target: T1, human P2X3 receptor (Homo sapiens, UniProt P56373)
T1 construct: expressed in transfected cells; host or cells: CHO-K1
T1 sequence (P56373 1-397): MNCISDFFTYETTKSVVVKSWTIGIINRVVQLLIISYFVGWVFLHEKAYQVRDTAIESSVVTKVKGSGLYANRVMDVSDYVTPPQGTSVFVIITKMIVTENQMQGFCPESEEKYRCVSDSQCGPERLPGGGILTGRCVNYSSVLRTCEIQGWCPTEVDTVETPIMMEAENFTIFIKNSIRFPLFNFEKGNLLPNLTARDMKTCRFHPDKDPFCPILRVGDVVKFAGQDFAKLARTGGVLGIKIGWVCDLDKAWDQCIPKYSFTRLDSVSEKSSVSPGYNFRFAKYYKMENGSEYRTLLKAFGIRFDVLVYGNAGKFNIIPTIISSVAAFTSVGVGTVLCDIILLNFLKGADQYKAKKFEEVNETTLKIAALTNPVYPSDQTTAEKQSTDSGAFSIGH
Assay: Calcium luminescence (photoprotein) assay in CHO-K1 cells co-expressing human P2X3 receptor, α,β-Met-ATP stimulation, FLEXSTATION readout
Format: cell-based
Description: The assay for the human purinergic P2X3 receptor has been adapted to the internal screening instrumentation using the FLEXSTATION as reader and a photoprotein as luminescent readout. The assay consists of CHO-K1 cells recombinantly co-expressing the human P2rx3 receptor and a Ca^2+ sensitive photoprotein. Cells are maintained in DMEM F-12 (1:1) mixture (LONZA cat. no BE04-687F/U1) supplemented with 9 mL of 100 mM Sodium Pyruvate (LONZA cat. no BE13-115E), 29 mL of 7.5% Sodium Bicarbonate (LONZA cat. no: BE17-613E), 5.5 mL of 1 M Hepes (LONZA cat. no BE17-737E), 5 mL of 100× Penicillin/Streptomycin (LONZA cat. no DE17-602E) and 50 mL of Fetal Bovine Serum (Sigma cat. no F7524), 1 mg/mL G418 (Sigma cat. no G8168) and 5 µg/ml puromycin (Sigma cat. no P9620). Standard propagation conditions consist of seeding in a P75 flask twice a week, recovering about 20×10^6 cells, corresponding to about 80% confluency. Cells were seeded into black-walled clear bottom 96 well plates at a density of 40000 cells/well in a Tyrode's buffer (Standard Tyrode's buffer: in house solution, 130 mM NaCl, 5 mM KCl, 2 mM CaCl2, 5 mM NaHCO3, 1 mM MgCl2, 20 mM HEPES, pH 7.4). After 24 h the culture medium was replaced with 200 μL/well of coelenterazine in Tyrode's buffer (Coelenterazine: from BIOSYNTH (cat. no C-7001). 10 mM stock solution was prepared in DMSO and glutathione and stored at −20° C.). The plates were incubated for 4 hours at 37° C., and injected with 10 μL/well of test compounds at 25× concentration in Tyrode's buffer. After 4 minutes a second injection of 50 μL/well of 5× α,β-Met-ATP in Tyrode's buffer (α,β-Met-ATP: from Tocris (cat. no 3209), was dissolved at 100 mM in water and stored in aliquots at −20° C.) was performed and the signal of the emitted luminescence was recorded by FLEXSTATION III (Molecular Devices).
The inhibition curves of the tested compounds at cloned P2X3 receptor were determined by nonlinear regression analysis using software Prism 4.0 (Graphpad, San Diego, Calif.). The IC50 values and pseudo-Hill slope coefficients were estimated by the program.

[1] = Table 9, human P2X3 receptor antagonist activity, CHO-K1 cells, α,β-Met-ATP, read-out: h-P2X3 IC50
[2] = Table 8, human P2X3 receptor antagonist activity, CHO-K1 cells, α,β-Met-ATP, read-out: h-P2X3 IC50
[3] = Table 6, human P2X3 receptor antagonist activity, CHO-K1 cells, α,β-Met-ATP, read-out: h-P2X3 IC50
[4] = Table 7, human P2X3 receptor antagonist activity, CHO-K1 cells, α,β-Met-ATP, read-out: h-P2X3 IC50

IC50 [1]: 4.29 µM
Compound: COc1cc(CN2C(=O)N3CC(C)(C)N=C3c3ncc(N4CCOCC4)cc32)cc(OC)c1 [Example 161, 6-(3,5-dimethoxybenzyl)-2,2-dimethyl-8-(morpholin-4-yl)-2,6-dihydroimidazo[1,2-c]pyrido[2,3-e]pyrimidin-5(3H)-one]

IC50 (running text b1263, read-out: inhibition (human P2X3 receptor)): 0.0207 µM
Compound: COc1ccc(Cn2c(=O)n3c(C(C)(C)C)nnc3c3ncc(N4CCOCC4)cc32)cc1 [Example 96, 3-tert-butyl-6-(4-methoxybenzyl)-8-(morpholin-4-yl)pyrido[2,3-e][1,2,4]triazolo[4,3-c]pyrimidin-5(6H)-one]

IC50 [2]: 1.44 µM
Compound: CC(C)(C)c1nnc2c3ncc(Br)cc3c(Cc3ccc(Cl)cc3)nn12 [Example 112, 8-bromo-3-tert-butyl-6-(4-chlorobenzyl)pyrido[2,3-d][1,2,4]triazolo[4,3-b]pyridazine]

IC50 [3]: 0.189 µM
Compound: COc1cc(CN2C(=O)N3CC(C(C)C)N=C3c3ncc(N4CCC(N)CC4)cc32)cc(OC)c1 (stereo not shown) [Example 42, 8-(4-aminopiperidin-1-yl)-6-(3,5-dimethoxybenzyl)-2-(propan-2-yl)-2,6-dihydroimidazo[1,2-c]pyrido[2,3-e]pyrimidin-5(3H)-one]

IC50 [1]: 0.495 µM
Compound: COc1ccc(Cn2c(=O)n3nc(C(C)(C)C)nc3c3ncc(N4CCOCC4)cc32)cc1 [Example 157, 2-tert-butyl-6-(4-methoxybenzyl)-8-(morpholin-4-yl)pyrido[2,3-e][1,2,4]triazolo[1,5-c]pyrimidin-5(6H)-one]

IC50 [3]: 0.636 µM
Compound: COc1cc(CN2C(=O)N3C(=NC(C)C3C)c3ncc(N4CCOCC4)cc32)cc(OC)c1 (stereo not shown) [Example 8, 6-(3,5-dimethoxybenzyl)-2,3-dimethyl-8-(morpholin-4-y1)-2,6-dihydroimidazo[1,2-c]pyrido[2,3-e]pyrimidin-5(3H)-one]

IC50 [3]: 0.2 µM
Compound: O=C1N(Cc2ccc(Cl)cc2)c2cc(N3CCOCC3)cnc2C2=NCC(c3ccccc3)N12 (stereo not shown) [Example 45, 6-(4-chlorobenzyl)-8-(morpholin-4-y1)-3-phenyl-2,6-dihydroimidazo[1,2-c]pyrido[2,3-e]pyrimidin-5(3H)-one]

IC50 [3]: 0.278 µM
Compound: CCC1CN2C(=O)N(Cc3cc(OC)cc(OC)c3)c3cc(N4CCOCC4)cnc3C2=N1 (stereo not shown) [Example 5, 6-(3,5-dimethoxybenzyl)-2-ethyl-8-(morpholin-4-yl)-2,6-dihydroimidazo[1,2-c]pyrido[2,3-e]pyrimidin-5(3H)-one]

IC50 [4]: 1.3 µM
Compound: COc1cc(Cn2c(=O)n3c(C)c(C)nc3c3ncc(N4CCC(OC)CC4)cc32)cc(OC)c1 [Example 85, 6-(3,5-dimethoxybenzyl)-8-(4-methoxypiperidin-1-yl)-2,3-dimethylimidazo[1,2-c]pyrido[2,3-e]pyrimidin-5(6H)-one]

IC50 [3]: 0.299 µM
Compound: CC(C)CCC1CN=C2c3ncc(N4CCOCC4)cc3N(Cc3ccc(Cl)cc3)C(=O)N21 (stereo not shown) [Example 63, 6-(4-chlorobenzyl)-3-(3-methylbutyl)-8-(morpholin-4-yl)-2,6-dihydroimidazo[1,2-c]pyrido[2,3-e]pyrimidin-5(3H)-one]

IC50 [3]: 0.506 µM
Compound: COc1ccc(CN2C(=O)N3CC(C4CCCCC4)N=C3c3ncc(N4CCOCC4)cc32)cc1 (stereo not shown) [Example 23, 2-cyclohexyl-6-(4-methoxybenzyl)-8-(morpholin-4-yl)-2,6-dihydroimidazo[1,2-c]pyrido[2,3-e]pyrimidin-5(3H)-one]

IC50 [4]: 0.121 µM
Compound: CC(C)c1nnc2c3ncc(N4CCOCC4)cc3n(Cc3ccc(Cl)cc3)c(=O)n12 [Example 99, 6-(4-chlorobenzyl)-8-(morpholin-4-yl)-3-(propan-2-yl)pyrido[2,3-e][1,2,4]triazolo[4,3-c]pyrimidin-5(6H)-one]

IC50 [2]: 0.469 µM
Compound: COc1cc(Cc2nn3c(CC(C)C)nnc3c3ncc(N4CCOCC4)cc23)cc(OC)c1 [Example 116, 6-(3,5-dimethoxybenzyl)-3-(2-methylpropyl)-8-(morpholin-4-yl)pyrido[2,3-d][1,2,4]triazolo[4,3-b]pyridazine]

IC50 [1]: 0.278 µM
Compound: CC(C)C1C(=O)N=C2c3ncc(N4CCOCC4)cc3N(Cc3ccc(Cl)cc3)C(=O)N21 (stereo not shown) [Example 163, 6-(4-chlorobenzyl)-8-(morpholin-4-yl)-3-(propan-2-yl)imidazo[1,2-c]pyrido[2,3-e]pyrimidine-2,5(3H,6H)-dione]

IC50 [4]: 0.292 µM
Compound: COc1cc(Cn2c(=O)n3c(C)c(C(C)C)nc3c3ncc(NCC4COC4)cc32)cc(OC)c1 [Example 83, 6-(3,5-dimethoxybenzyl)-3-methyl-8-[(oxetan-3-ylmethyl)amino]-2-(propan-2-yl)imidazo[1,2-c]pyrido[2,3-e]pyrimidin-5(6H)-one]

IC50 [1]: 2.17 µM
Compound: CCC1CCN=C2c3ncc(N4CCOCC4)cc3N(Cc3ccc(Cl)cc3)C(=O)N21 (stereo not shown) [Example 155, 5-(4-chlorobenzyl)-8-ethyl-3-(morpholin-4-yl)-5,8,9,10-tetrahydro-6H-pyrido[2,3-e]pyrimido[1,2-c]pyrimidin-6-one]

IC50 [3]: 0.389 µM
Compound: O=C1N2CC(C3CCCCC3)N=C2c2ncc(N3CCOCC3)cc2N1Cc1ccc(Cl)cc1 (stereo not shown) [Example 25, 6-(4-chlorobenzyl)-2-cyclohexyl-8-(morpholin-4-yl)-2,6-dihydroimidazo[1,2-c]pyrido[2,3-e]pyrimidin-5(3H)-one]

IC50 [4]: 3.51 µM
Compound: CC(C)Cc1cn2c(=O)n(Cc3c(F)cc(Cl)cc3F)c3cc(N4CCOCC4)cnc3c2n1 [Example 75, 6-(4-chloro-2,6-difluorobenzyl)-2-(2-methylpropyl)-8-(morpholin-4-yl)imidazo[1,2-c]pyrido[2,3-e]pyrimidin-5(6H)-one]

IC50 [3]: 0.491 µM
Compound: COc1cc(CN2C(=O)N3C(=NCC3C3CCCCC3)c3ncc(N4CCOCC4)cc32)cc(OC)c1 (stereo not shown) [Example 44, 3-cyclohexyl-6-(3,5-dimethoxybenzyl)-8-(morpholin-4-yl)-2,6-dihydroimidazo[1,2-c]pyrido[2,3-e]pyrimidin-5(3H)-one]

IC50 [4]: 0.575 µM
Compound: COc1ccc(Cn2c(=O)n3c(C)c(C(C)C)nc3c3ncc(N4CCOCC4)cc32)cc1 [Example 89, 6-(4-methoxybenzyl)-3-methyl-8-(morpholin-4-yl)-2-(propan-2-yl)imidazo[1,2-c]pyrido[2,3-e]pyrimidin-5(6H)-one]

IC50 [3]: 1.64 µM
Compound: COc1cc(CN2C(=O)N3CCN=C3c3ncc(N4CCOCC4)cc32)cc(OC)c1 [Example 7, 6-(3,5-dimethoxybenzyl)-8-(morpholin-4-yl)-2,6-dihydroimidazo[1,2-c]pyrido[2,3-e]pyrimidin-5(3H)-one]

IC50 [3]: 5.51 µM
Compound: COc1ccc(CN2C(=O)N3CC(C(C)C)N=C3c3ncc(N4CC5(COC5)C4)cc32)cc1 (stereo not shown) [Example 19, 6-(4-methoxybenzyl)-8-(2-oxa-6-azaspiro[3.3]heptan-6-yl)-2-(propan-2-yl)-2,6-dihydroimidazo[1,2-c]pyrido[2,3-e]pyrimidin-5(3H)-one]

IC50 [2]: 0.0191 µM
Compound: CC(c1nnc2c3ncc(N4CCOCC4)cc3c(Cc3ccc(Cl)cc3)nn12)C1CCOCC1 (stereo not shown) [Example 132, 6-(4-chlorobenzyl)-8-(morpholin-4-yl)-3-[1-(tetrahydro-2H-pyran-4-yl)ethyl]pyrido[2,3-d][1,2,4]triazolo[4,3-b]pyridazine]

IC50 [3]: 0.109 µM
Compound: CC(C)(C)C1C(=O)N=C2c3ncc(N4CCOCC4)cc3N(Cc3ccc(Cl)cc3)C(=O)N21 (stereo not shown) [Example 68, 3-tert-butyl-6-(4-chlorobenzyl)-8-(morpholin-4-yl)imidazo[1,2-c]pyrido[2,3-e]pyrimidine-2,5(3H,6H)-dione]

IC50 [1]: 0.289 µM
Compound: O=c1n(Cc2ccc(Cl)cc2)c2cc(N3CCOCC3)cnc2c2nnc(CC3CCOCC3)n12 [Example 186, 6-(4-chlorobenzyl)-8-(morpholin-4-yl)-3-(tetrahydro-2H-pyran-4-ylmethyl)pyrido[2,3-e][1,2,4]triazolo[4,3-c]pyrimidin-5(6H)-one]
